Test results taken from patent publication US12686832B2, “Ashless ionic liquid” (PETROLIAM NASIONAL BERHAD (PETRONAS), priority 2022, dated 2026).

Legend:
[1] = Miscibility study in ETRO 4+; type: physicochemical; conditions: 1 wt. % in ETRO 4+, mixed at 60° C. for 1 h, left 24 h before observation
Procedure: Synthesised ionic liquids (1 wt. %) were mixed with ETRO 4+ solution at 60° C. for 1 h, and left to sit for 24 h before observation.

[2] = Thermo-gravimetric analysis under nitrogen (ashless nature); type: physicochemical
Excerpt: The ashless nature of the formed ionic liquid was confirmed by thermo-gravimetric analysis under nitrogen (0.4788 wt. % residue).
The ashless nature of the formed ionic liquid was confirmed by thermo-gravimetric analysis under nitrogen (0.47271 wt. % residue).

[3] = Experimental solubility at 1 wt % in lubricant base oils; type: physicochemical
Procedure: ILN18-5B-DC12 was mixed in mineral base oil Group III+ (ETRO 4+) and PETRONAS LB 25 polyol ester (and their mixtures) at 1 wt. % concentration to assess solubility and tribology evaluation. Samples were prepared by mixing the solutions at 60° C. for 1 h.
Samples were prepared by mixing the solutions at 60° C. for 1 h.
ILN18-MECA-1 was mixed in mineral base oil Group III+(ETRO 4+) and PETRONAS LB 25 polyol ester at 1 wt % concentration respectively to assess solubility and tribology evaluation. Samples were prepared by mixing the solutions at 60° C. for 1 h.

[4] = High Frequency Reciprocating Rig (HFRR) tribology test; conditions: for Friction coefficient behaviour over contact time / friction reduction compared to the baseline fluid / wear scar diameter reduction compared to the baseline fluid: 1 wt % in PETRONAS LB 25 polyol ester; for Friction coefficient behaviour over contact time: vs baseline fluid
Procedure: (§1) High Frequency Reciprocating Rig (HFRR): tribology test rubbing of ball to disc metal specimens, under pure sliding contact (boundary lubrication regime), load at 400 g, frequency at 20 Hz, temperature at 120° C. for 60 mins. Only visually soluble solutions were evaluated, therefore, only Formulation 2 and Formulation 3 were tested. Reported values were the average of minimum 2 repeat runs.
as §1, with “was” for “and Formulation 3 were”, “replicate” for “repeat”
High Frequency Reciprocating Rig (HFRR): tribology test rubbing of ball to disc metal specimens, under pure sliding contact (boundary lubrication regime), load at 400 g, frequency at 20 Hz, temperature at 120° C. for 60 mins. Reported values were the average of minimum 2 replicate runs.

[5] = 1 wt % in ETRO 4+ (89%) and LB 25 (10%), HFRR 400 g, 20 Hz, 120° C., 60 mins
[6] = HFRR 400 g, 20 Hz, 120° C., 60 mins

Compound | Appearance (miscibility) [1] | residue in thermo-gravimetric analysis [2] | Friction coefficient behaviour over contact time [4] | friction reduction compared to the baseline fluid [4, 6] | wear scar diameter reduction compared to the baseline fluid [4, 6] | further results
CC(C)(COC(=O)CCCCCCCCC(=O)[O-])COC(=O)CCCCCCCCC(=O)[O-].CCCCCCCC[N+](C)(CCCCCCCC)CCCCCCCC.CCCCCCCC[N+](C)(CCCCCCCC)CCCCCCCC [ILN18-5B-DC10] | Insoluble (2 separate phases) |  |  |  |  | 
CC(C)(COC(=O)CCCCCCCCCCC(=O)O)COC(=O)CCCCCCCCCCC(=O)O [ILN18-5B-DC12] |  | 0.4788 wt. % | significant friction reduction | 67% | 59% | Experimental solubility ([3]; Formulation 1: 1 wt % in Group III Mineral Oil (ETRO 4+), mixed at 60° C. for 1 h): Insoluble; Experimental solubility ([3]; Formulation 2: 1 wt % in PETRONAS polyol ester LB 25, mixed at 60° C. for 1 h): Soluble, clear solution; Experimental solubility ([3]; Formulation 3: 1 wt % in ETRO 4+ (89%) and LB 25 (10%), mixed at 60° C. for 1 h): Soluble, clear solution; friction reduction compared to baseline [4, 5]: 55%; wear scar diameter reduction compared to baseline [4, 5]: 57%
CCCCCCCC[N+](C)(CCCCCCCC)CCCCCCCC.CCCCCCCC[N+](C)(CCCCCCCC)CCCCCCCC.O=C([O-])CCCCCCCCCCC(=O)[O-] [ILN18-DC12, reference compound] | Insoluble (2 separate phases) |  |  |  |  | 
CCCCCCCCC(=O)OC(CCCCCC)CCCCCCCCCCC(=O)[O-].CCCCCCCC[N+](C)(CCCCCCCC)CCCCCCCC (stereo not shown) [ILN18-MECA-4] | Clear solution |  |  |  |  | 
tris-(trioctyl methylammonium) trisebacate [ILN18-6BT-DC10] |  | 0.4727 wt. % | significant friction reduction | 57% | 58% | 
